According to ChEMBL document CHEMBL1135073, “Solution and solid-phase synthesis of potent inhibitors of hepatitis C virus NS3 proteinase” (Bioorg Med Chem Lett, 2002):
*1 amine or outer side, *2 acyl side, *3 side chain or, on linkers, in order; H or OH if unused. Where a SMILES comes first, the peptide text is derived from it. [ ]: non-standard residue; d: D form. The star is where a group is joined. Nleψ(COCO) = CCCC[C@H](N[*:1])C(=O)C(=O)[*:2]; Acetyl(2-naphthyl) = O=C(Cc1ccc2ccccc2c1)*; NH(1S-phenylpropyl) = CC[C@H](N*)c1ccccc1; Phe(2-Me) = Cc1ccccc1C[C@H](N)C(=O)O; NleCONH2 = CCCC[C@H](N*)C(=O)C(N)=O; 3Thi = N[C@@H](Cc1ccsc1)C(=O)O; Phg = N[C@H](C(=O)O)c1ccccc1; Suc = O=C(CCC(=O)[*:2])[*:1]; Tle = CC(C)(C)[C@H](N)C(=O)O; Bn = c1ccc(C*)cc1

Each molecule was assayed against NS3 (Hepatitis C virus, UniProt A3EZJ3) (assay: Inhibitory concentration against Hepatitis C virus NS3 proteinase).
Sequence of NS3 (A3EZJ3 whole entry): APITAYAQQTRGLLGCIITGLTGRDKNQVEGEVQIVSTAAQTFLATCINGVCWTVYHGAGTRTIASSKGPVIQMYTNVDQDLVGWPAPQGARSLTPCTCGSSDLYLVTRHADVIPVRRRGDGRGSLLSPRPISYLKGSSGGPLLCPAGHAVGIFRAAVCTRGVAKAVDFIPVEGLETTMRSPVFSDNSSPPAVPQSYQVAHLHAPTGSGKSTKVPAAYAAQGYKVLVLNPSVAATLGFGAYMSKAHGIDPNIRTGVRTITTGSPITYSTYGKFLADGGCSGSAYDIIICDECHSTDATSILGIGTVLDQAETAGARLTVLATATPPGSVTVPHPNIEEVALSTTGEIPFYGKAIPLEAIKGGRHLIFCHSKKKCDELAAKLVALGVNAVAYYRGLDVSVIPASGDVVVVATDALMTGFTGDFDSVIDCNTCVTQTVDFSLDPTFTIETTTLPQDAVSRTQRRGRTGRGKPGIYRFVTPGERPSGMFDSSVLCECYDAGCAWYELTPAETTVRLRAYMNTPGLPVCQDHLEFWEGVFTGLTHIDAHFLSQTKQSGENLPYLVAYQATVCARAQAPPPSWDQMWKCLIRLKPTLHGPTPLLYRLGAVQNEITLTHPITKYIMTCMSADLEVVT
Set-up: species or system Hepacivirus hominis

Row | Compound | IC50
1 | CCCC[C@H](NC(=O)[C@H](CC(C)C)NC(=O)[C@@H](NC(=O)[C@H](Cc1ccc(OCc2ccccc2)cc1)NC(=O)[C@H](CCC(=O)O)NC(=O)[C@H](CC(=O)O)NC(=O)CCC(=O)O)C(C)(C)C)C(=O)C(N)=O (Suc-DEY(Bn)[Tle]L-NleCONH2) | 0.11 µM
2 | CCCC[C@H](NC(=O)[C@H](CC(C)C)NC(=O)[C@@H](NC(=O)[C@H](Cc1ccccc1C)NC(=O)[C@H](CCC(=O)O)NC(=O)[C@H](CC(=O)O)NC(=O)CCC(=O)O)c1ccccc1)C(=O)C(N)=O (Suc-DE[Phe(2-Me)][Phg]L-NleCONH2) | 0.042 µM
3 | CCCC[C@H](NC(=O)[C@H](CC(C)C)NC(=O)[C@@H](NC(=O)[C@H](Cc1ccccc1C)NC(=O)[C@H](CCC(=O)O)NC(=O)[C@H](CC(=O)O)NC(=O)CCC(=O)O)C(C)(C)C)C(=O)C(=O)N[C@@H](CC)c1ccccc1 (Suc-DE[Phe(2-Me)][Tle]L[Nleψ(COCO)]-{NH(1S-phenylpropyl)}) | 0.011 µM
4 | CCCC[C@H](NC(=O)[C@H](Cc1ccsc1)NC(=O)[C@@H](NC(=O)[C@H](Cc1ccccc1C)NC(=O)[C@H](CCC(=O)O)NC(=O)[C@H](CC(=O)O)NC(=O)CCC(=O)O)C(C)(C)C)C(=O)C(N)=O (Suc-DE[Phe(2-Me)][Tle][3Thi]-NleCONH2) | 0.13 µM
5 | CCCC[C@H](NC(=O)[C@H](CC(C)C)NC(=O)[C@@H](NC(=O)[C@H](Cc1ccccc1C)NC(=O)[C@H](COCc1ccccc1)NC(=O)[C@H](CC(=O)O)NC(=O)CCC(=O)O)C(C)(C)C)C(=O)C(N)=O (Suc-DS(Bn)[Phe(2-Me)][Tle]L-NleCONH2) | 0.029 µM
6 | CCCC[C@H](NC(=O)[C@H](CC(C)C)NC(=O)[C@@H](NC(=O)[C@H](Cc1ccccc1C)NC(=O)[C@@H](NC(=O)[C@H](CC(=O)O)NC(=O)CCC(=O)O)C(C)C)C(C)(C)C)C(=O)C(N)=O (Suc-DV[Phe(2-Me)][Tle]L-NleCONH2) | 0.02 µM
7 | CCCC[C@H](NC(=O)[C@H](CC(C)C)NC(=O)[C@@H](NC(=O)[C@H](Cc1ccccc1C)NC(=O)[C@H](CCC(=O)O)NC(=O)[C@H](Cc1c[nH]c2ccccc12)NC(=O)CCC(=O)O)C(C)(C)C)C(=O)C(N)=O (Suc-WE[Phe(2-Me)][Tle]L-NleCONH2) | 0.041 µM
8 | CCCC[C@H](NC(=O)[C@H](CC(C)C)NC(=O)[C@@H](NC(=O)[C@H](Cc1ccccc1C)NC(=O)[C@H](CCC(=O)O)NC(=O)[C@H](CC(=O)O)NC(=O)Cc1ccc2ccccc2c1)C(C)(C)C)C(=O)C(N)=O ({Acetyl(2-naphthyl)}-DE[Phe(2-Me)][Tle]L-NleCONH2) | 0.09 µM
